Test results from patent publication US9487530B2, “Transient protection of normal cells during chemotherapy” (G1 Therapeutics, Inc., priority 2013, dated 2016).

Legend:
[1] = Mouse pharmacokinetics, oral gavage and intravenous; type: in vivo
[2] = test system: A2058 cells (CDK4/6-independent cell line); test: Cell cycle arrest (propidium iodide), A2058; type: cell-based; details: 300 nM for 24 hours
From the text: To test the ability of Cdk4/6 inhibitors to induce a clean G1-arrest, a cell based screening method was used consisting of two Cdk4/6-dependent cell lines (tHS68 and WM2664; Rb-positive) and one Cdk4/6-independent (A2058; Rb-negative) cell line. […] At the conclusion of the experiment, cells were harvested, fixed, and stained with propidium iodide (a DNA intercalator), which fluoresces strongly red (emission maximum 637 nm) when excited by 488 nm light. Samples were run on Dako Cyan flow cytometer and >10,000 events were collected for each sample. Data were analyzed using FlowJo 2.2 software developed by TreeStar, Inc.

[3] = test system: telomerized human diploid fibroblasts (tHDFs; tHS68); test: Protection from chemotherapy-induced cell death, DNA damage and caspase activation in fibroblasts; type: cell-based
Method: Cell survival was determined by Cell TiterGlo assay per manufacturer's recommendations. For both γ-H2AX and caspase 3/7 assays, cells were plated and allowed to become adherent for 24 hours. […] For γ-H2AX, cells were harvested for analysis 8 hours after chemotherapy exposure. For the γ-H2AX assay, cells were fixed, permeabilized, and stained with anti-γ-H2AX as per the γ-H2AX Flow Kit (Millipore) and quantitated by flow cytometry. Data was analyzed using FlowJo 2.2 software developed by TreeStar, Inc. For the in vitro caspase 3/7 assay, cells were harvested 24 hours post chemotherapy treatment. Caspase 3/7 activation was measured using the Caspase-Glo® 3/7 Assay System (Promega) per manufacturer's recommendations.

[4] = test system: blood cell counts; test: 5FU-induced myelosuppression, single dose; type: in vivo, mouse; details: 150 mg/kg oral, 30 minutes before 5FU 150 mg/kg i.p.
Method: Complete blood cell counts were measured every two days starting on day six.

[5] = test system: RB-negative SCLC cell lines (H69, H82, H209, H345, NCI417, SHP-77); test: EdU proliferation, RB-negative SCLC cell lines; type: cell-based, human; details: 24 hours treatment
Method: The effect of Cdk4/6 inhibition on proliferation was measured by EdU incorporation. An RB-intact, Cdk4/6-dependent cell line (WM2664 or tHS68) and a panel of RB-negative SCLC cell lines (H69, H82, H209, H345, NCI417, or SHP-77) were analyzed for growth inhibition by the various CDK4/6 inhibitors.

[6] = test system: human renal proximal tubule cells; test: gamma-H2AX and caspase 3/7 in renal proximal tubule cells with cisplatin; type: cell-based
Method: Normal renal proximal tubule epithelial cells were obtained from American Type Culture Collection (ATCC, Manassas, Va.). Cells were grown in an incubator at 37° C. in a humidified atmosphere of 5% CO2 in Renal Epithelial Cell Basal Media (ATCC) supplemented with Renal Epithelial Cell Growth Kit (ATCC) in 37° C. humidified incubator. […] For the γ-H2AX assay, cells were fixed, permeabilized, and stained with anti-γ-H2AX as per the γ-H2AX Flow Kit (Millipore) and quantitated by flow cytometry. Data was analyzed using FlowJo 2.2 software developed by TreeStar, Inc. Caspase 3/7 activation was measured using the Caspase-Glo 3/7 Assay System (Promega, Madison, Wis.) by following the manufacturer's instructions.

[7] = test system: human renal proximal tubule cells; test: Cell cycle of renal proximal tubule cells with etoposide or cisplatin; type: cell-based; details: 10-1000 nM in combination with etoposide or cisplatin
Method: The ability of Cdk4/6 inhibitors to protect human renal proximal tubule cells from chemotherapy induced DNA damage was analyzed using etoposide and cisplatin. […] At the conclusion of the experiment, cells were harvested, fixed, and stained with propidium iodide (a DNA intercalator), which fluoresces strongly red (emission maximum 637 nm) when excited by 488 nm light. Samples were run on Dako Cyan flow cytometer.

[8] = test system: Rb phosphorylation at Ser780 and Ser807/811; test: Rb phosphorylation western blot; type: cell-based; details: 300 nM; Rb-dependent cell lines (tHS68, WM2664); by 16 hours post exposure
Method: The Cdk4/6-cyclin D complex is essential for progression from G1 to the S-phase of the DNA cell cycle. This complex phosphorylates the retinoblastoma tumor suppressor protein (Rb). […] Samples were lysed and protein was assayed by western blot analysis. Rb phosphorylation was measured at two sites targeted by the Cdk4/6-cyclin D complex, Ser780 and Ser807/811 using species specific antibodies.

## CN1CCN(c2ccc(Nc3ncc4cc5n(c4n3)C3(CCCCC3)CNC5=O)nc2)CC1 [T, 2′-((5-(4-methylpiperazin-1-yl)pyridin-2-yl)amino)-7′,8′-dihydro-6′H-spiro[cyclohexane-1,9′-pyrazino[1′,2′:1,5]pyrrolo[2,3-d]pyrimidin]-6′-one]
[1]
  F (oral bioavailability): 80%
[2]
  S-phase peak: does not cause a loss of the S-phase peak
[3]; in the presence of etoposide (5 uM) or carboplatin (100 uM)
  cell survival (Cell TiterGlo): dose dependent cell survival
[3]; prior to carboplatin, doxorubicin, etoposide, camptothecin or paclitaxel
  DNA damage as measured by gamma-H2AX formation: attenuated DNA damage
[3]; prior to carboplatin, doxorubicin, etoposide, camptothecin, and paclitaxel
  caspase 3/7 activation: robust decrease in caspase 3/7 activation in a dose-dependent manner
[4]
  recovery of blood cell lineages after 5FU: more rapid recovery
[5]
  growth (cells in S-phase by EdU): does not affect the growth
[6]; cisplatin 25 uM, 50 uM, or 100 uM
  caspase 3/7 activation: dose-dependent reduction in caspase 3/7 activation
[6]; in combination with 25 uM cisplatin
  DNA damage as measured by gamma-H2AX formation: attenuated DNA damage
[7]
  cell cycle distribution: decrease in the percentage of S-phase cells, with a corresponding rise in the percentage of cells in the G0-G1 phase
[8]
  Rb phosphorylation: blocks Rb phosphorylation
